Paper PMC4666645 (PLoS Pathogens, 2015)
Counter-ions that a name gives are not always drawn. Like-named read-outs stand apart in the source and are kept apart here.

Tests used:
Hco-26/27 receptor = Hco-26/27 receptor (Haemonchus contortus, UniProt A9XX30+S4VAP0); assay: cell-based
From the text: In order to investigate if the overlapping expression contributed to functional receptors, we co-expressed Hco-ACR-26 and Hco-ACR-27 in Xenopus laevis oocytes. We have previously reported that the functional expression of nematode muscle AChRs in Xenopus oocytes requires the addition of ancillary proteins. Therefore, cRNAs encoding the subunits Hco-ACR-26 and Hco-ACR-27, in combination with three ancillary proteins (Hco-ric-3.1, Hco-unc-74 and Hco-unc-50) were co-injected into Xenopus oocytes. […] Subsequently, different cRNA combinations were injected into Xenopus oocytes in order to determine the minimal subunit combination leading to the expression of a functional receptor and verify the ancillary factor requirement.
The subunit stoichiometry has been previously reported to impact the pharmacological properties of some nematode AChRs expressed in Xenopus oocytes.
(§1) H. contortus and P. equorum acr-26 and acr-27 cDNAs were PCR-amplified using primers containing a restriction site in order to be sub-cloned into the expression vector pTB207 that is suitable for in vitro transcription. Primers are listed in S3 Table. The resulting plasmids were linearized with the NheI restriction enzyme (Fermantas) and used as templates for cRNA synthesis using the T7 mMessage mMachine kit (Ambion). Xenopus laevis ovaries were obtained from the University of Rennes, France (CRB Xenope) and defolliculated using 2 mg/ml collagenase type II (Gibco) in the incubation solution containing: 100 mM NaCl, 2 mM KCl, 1.8 mM CaCl2.2H2O, 1 mM MgCl2.6H2O, 5 mM HEPES, 2.5 mM C3H3NaO3, pH 7.5, supplemented with penicillin 100 U/mL and streptomycin 100 μg/mL). The oocytes were injected in the animal pole with a total volume of 36 nL of cRNA mix containing 50 ng/μL of each cRNA in RNase-free water using the Drummond nanoject II microinjector. Microinjected oocytes were kept at 20°C in incubation medium for 4 days to allow the receptors expression. Two-electrode voltage-clamp recordings were carried out using an Oocyte Clamp OC-725C amplifier (Warner instrument) in oocytes being voltage-clamped at -60mV. All agonist preparations were prepared with recording buffer (100 mM NaCl, 2.5 mM KCl, 1 mM CaCl2.2H2O, 5 mM HEPES, pH 7.3). Currents were recorded and analyzed using the pCLAMP 10.4 package (Molecular Devices).

Peq-26/27 receptor = Peq-26/27 receptor (Parascaris equorum, UniProt A0A0U2ES47+A0A0U2ES58); assay: cell-based
Peq-26/27 receptor, sequence (A0A0U2ES58 entry or part of it): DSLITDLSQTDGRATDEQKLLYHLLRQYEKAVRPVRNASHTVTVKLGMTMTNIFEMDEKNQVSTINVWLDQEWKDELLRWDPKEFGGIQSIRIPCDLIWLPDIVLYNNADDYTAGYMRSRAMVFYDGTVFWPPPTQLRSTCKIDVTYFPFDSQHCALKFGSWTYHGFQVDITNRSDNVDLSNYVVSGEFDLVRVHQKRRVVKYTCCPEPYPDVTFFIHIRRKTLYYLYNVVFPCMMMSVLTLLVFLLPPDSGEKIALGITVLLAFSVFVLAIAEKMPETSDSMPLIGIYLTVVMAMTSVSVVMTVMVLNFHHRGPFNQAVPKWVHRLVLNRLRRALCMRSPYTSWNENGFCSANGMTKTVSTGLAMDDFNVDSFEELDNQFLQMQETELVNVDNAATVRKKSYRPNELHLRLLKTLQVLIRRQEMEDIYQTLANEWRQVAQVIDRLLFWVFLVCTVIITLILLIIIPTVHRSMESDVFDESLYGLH
Peq-26/27 receptor, sequence (A0A0U2ES47 entry or part of it): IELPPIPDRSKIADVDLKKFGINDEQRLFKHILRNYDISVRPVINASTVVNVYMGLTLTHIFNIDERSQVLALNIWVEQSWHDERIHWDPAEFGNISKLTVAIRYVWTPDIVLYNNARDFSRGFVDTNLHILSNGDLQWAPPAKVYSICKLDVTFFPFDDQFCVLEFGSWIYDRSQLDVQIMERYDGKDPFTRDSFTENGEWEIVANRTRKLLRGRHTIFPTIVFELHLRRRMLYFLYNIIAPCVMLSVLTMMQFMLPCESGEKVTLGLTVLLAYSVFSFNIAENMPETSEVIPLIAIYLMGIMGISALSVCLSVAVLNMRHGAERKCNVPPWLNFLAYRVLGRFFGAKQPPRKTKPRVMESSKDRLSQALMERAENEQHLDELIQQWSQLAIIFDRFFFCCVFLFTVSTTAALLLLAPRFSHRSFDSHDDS
Description: In order to determine if ACR-26 and ACR-27 subunits from other parasitic nematodes species could also form functional receptors when expressed in Xenopus oocyte, Peq-acr-26 and Peq-acr-27 cRNAs from the distantly related P. equorum (Clade III) were co-injected in combination with Hco-ric-3.1, Hco-unc-74 and Hco-unc-50 cRNAs. Four days after injection, we observed robust expression of a functional AChR responding to 100 μM ACh (Fig 6B). […] This novel heteropentameric AChR was named Peq-26/27.
as §1

[1] = 100 μM agonist, normalized to 100 μM ACh current, equal subunit ratio
[2] = read-out: Relative maximal current (Imax) normalized to 100 μM acetylcholine, cRNA ratio 1:1 26/27, 100 μM agonist

Hco-26/27 receptor, sequence (A9XX30 entry or part of it): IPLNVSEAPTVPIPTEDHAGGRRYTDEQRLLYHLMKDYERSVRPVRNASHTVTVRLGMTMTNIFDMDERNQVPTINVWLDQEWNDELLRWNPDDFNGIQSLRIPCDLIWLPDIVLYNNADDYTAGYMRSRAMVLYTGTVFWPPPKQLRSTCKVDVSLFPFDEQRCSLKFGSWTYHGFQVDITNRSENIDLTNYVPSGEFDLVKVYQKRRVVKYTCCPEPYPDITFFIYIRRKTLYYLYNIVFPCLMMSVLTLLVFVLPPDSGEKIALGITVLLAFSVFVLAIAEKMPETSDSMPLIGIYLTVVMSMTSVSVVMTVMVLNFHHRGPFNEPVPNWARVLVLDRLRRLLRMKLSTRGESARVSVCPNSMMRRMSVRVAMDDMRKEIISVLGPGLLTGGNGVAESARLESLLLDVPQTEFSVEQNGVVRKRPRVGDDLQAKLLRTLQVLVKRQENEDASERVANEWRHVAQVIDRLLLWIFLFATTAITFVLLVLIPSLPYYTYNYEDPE
Hco-26/27 receptor, sequence (S4VAP0 entry or part of it): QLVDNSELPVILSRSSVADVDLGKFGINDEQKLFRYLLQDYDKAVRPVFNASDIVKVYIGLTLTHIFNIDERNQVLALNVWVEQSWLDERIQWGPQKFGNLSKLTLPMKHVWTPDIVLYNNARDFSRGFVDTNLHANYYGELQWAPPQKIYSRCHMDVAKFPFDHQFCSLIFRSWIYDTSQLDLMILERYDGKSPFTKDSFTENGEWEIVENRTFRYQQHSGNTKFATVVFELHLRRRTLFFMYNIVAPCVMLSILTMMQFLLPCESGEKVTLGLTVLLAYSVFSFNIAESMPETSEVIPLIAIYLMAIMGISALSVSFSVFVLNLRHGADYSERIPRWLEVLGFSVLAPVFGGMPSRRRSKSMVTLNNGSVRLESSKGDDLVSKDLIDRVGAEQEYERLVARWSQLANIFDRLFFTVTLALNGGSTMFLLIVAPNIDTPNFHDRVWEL

With `CC(=O)OCC[N+](C)(C)C` [ACh, Acetylcholine chloride] the EC50 (Hco-26/27 receptor) was 80.1 ± 1.1 µM, the Emax at 100 µM (Hco-26/27 receptor; cRNA ratio 1:1 26/27, 100 μM agonist, read-out: Relative maximal current (Imax) normalized to 100 μM acetylcholine) was 100% and the Emax at 100 µM (Hco-26/27 receptor; cRNA ratio 1:5 26/27, 100 μM agonist, read-out: Relative maximal current (Imax) normalized to 100 μM acetylcholine) was 100%. It also gave an Emax at 100 µM (Hco-26/27 receptor; cRNA ratio 5:1 26/27, 100 μM agonist, read-out: Relative maximal current (Imax) normalized to 100 μM acetylcholine) of 100% and an EC50 (Peq-26/27 receptor) of 34.9 ± 1.1 µM.
In the case of `C[N+](C)(CCOc1ccccc1)Cc1ccccc1` [Beph, bephenium], the “Current elicited, % of ACh response” value (Hco-26/27 receptor; [1]) is reported as “insensitive”, the Emax at 100 µM (Hco-26/27 receptor; [2]) is reported as 3.21 ± 1.61% and the Emax at 100 µM (Hco-26/27 receptor; read-out: Relative maximal current (Imax) normalized to 100 μM acetylcholine, cRNA ratio 1:5 26/27, 100 μM agonist) is reported as 2.26 ± 2.26%.
With `CN1CCC[C@H]1c1cccnc1` [Nic, (-)-nicotine hydrogen tartrate] the “Current elicited, % of ACh response” value (Hco-26/27 receptor) was “insensitive” and the “Current elicited, % of ACh response” value (Peq-26/27 receptor; 100 μM agonist, normalized to 100 μM ACh current) was “insensitive”.
In the case of `CN1CCCN=C1/C=C/c1cccc(O)c1` [Oxa, oxantel], the “Current elicited, % of ACh response” value (Hco-26/27 receptor; [1]) is reported as “insensitive” and the Emax at 100 µM (Hco-26/27 receptor; [2]) is reported as 0.95 ± 0.95%.
